Publication PMC9146423, “Discovery of Nitro-azolo[1,5-a]pyrimidines with Anti-Inflammatory and Protective Activity against LPS-Induced Acute Lung Injury” (Pharmaceuticals, 2022)
pIC50: −log10 of the molar value.

Experiments:
[1] = system: LPS-stimulated peritoneal macrophages of C57bl/6j mice; assay: IL-6 secretion by LPS-stimulated peritoneal macrophages (ELISA); type: cell-based; details: Mus musculus, Peritoneal macrophage, 95% C.I. 1.43-9.87 μM
Procedure: Peritoneal macrophages (PM) were isolated from the peritoneal exudate of 30 male C57bl/6j mice. To accumulate PM, 1 mL of 3% peptone solution was injected intraperitoneally. After 3 days, the mice were euthanized by cervical dislocation. Cells of peritoneal exudate were obtained by aseptic washing of the abdominal cavity with 5 mL of sterile Hanks’s solution (+4–6 °C) without calcium and magnesium ions. The total number and viability of cells were assessed in a Goryaev counting chamber (Russia) with a 0.4% trypan blue staining (Sigma-Aldrich, St. Louis, MO, USA). The cell concentration was adjusted to 1.0 × 10^6 cells/mL in DMEM (Gibco) supplemented with 2 mM L-glutamine (Gibco, Waltham, MA, USA), 10% heat-inactivated fetal bovine serum (BioClot, Bavaria, Germany), 100 U/mL penicillin, and […] streptomycin (Gibco) and plated 200 μL/well in 96-well transparent plates (SPL Life Sciences Co., Ltd., Pocheon-si, Korea). After 2 h at 37 °C in a humidified atmosphere with 5% CO2, the wells were washed to remove non-adherent cells. […]
The cell supernatant was collected and centrifuged at 1000 g for 20 min in a 2–16PK centrifuge (Sigma, Osterode am Harz, Germany). The concentrations of IL-6 and TNF-α were determined by ELISA using commercial kits (Cloud-clone, Houston, TX, USA) with a microplate reader Infinite M200 PRO (Tecan, Grödig, Austria).

[2] = system: C57BL/6J mice; assay: LPS-induced acute lung injury in mice; type: in vivo, mouse
Procedure: The randomization of C57bl/6j mice into experimental and control groups was based on body weight and behavioral activity assessed in an open field test 24 h before the start of the experiment. The next day, mice were treated with vehicle or test compounds 1 h before intratracheal instillation of LPS solution in sterile saline.
The randomization of C57BL/6J mice was performed by body weight and motor activity in an open field test. Dexamethasone (5 mg/kg) and 9g (30 mg/kg) were administered intraperitoneally in 10 mL/kg sterile saline. The control animals received an equal volume of the vehicle. After 1 h, the mice were anesthetized with isoflurane inhalation until their breathing rate was decreased. The mice were suspended by the front incisors on an inclined surgical table, the tongue was pulled out with narrow curved tweezers, and 1 mg/mL of E. coli O127:B8 LPS (Sigma-Aldrich, St. Louis, MO, USA) in 1 mL/kg sterile saline was injected into the back of the oropharynx. Intact control animals received an equal volume of sterile saline similarly.
The animals were placed in the center of a round open field with an arena of 44 cm diameter and 32 cm wall height under 300 lux lighting. During 5 min of observation, horizontal motor activity, vertical motor activity, time spent in the central part, the number of exits to the central part, and exploratory activity parameters were recorded. Body temperature was determined rectally.
The mice were anesthetized with 500 mg/kg chloral hydrate (Sigma-Aldrich, St. Louis, MO, USA) intraperitoneally 24 h after LPS administration. Blood was taken by intracardiac puncture in test tubes with heparin. The blood samples were centrifuged at 1000 g and 4 °C for 15 min on a 2–16PK centrifuge (Sigma, Germany), and plasma was separated and stored at −80 °C until the assay. Thoracotomy was performed, the ligature was applied to the left bronchus and the trachea was cannulated with a 20 G needle. The right lung was washed twice with 0.7 mL of warm sterile saline. After combining aliquots, the bronchoalveolar lavage (BAL) was centrifuged at 800 g and 4 °C for 10 min. The supernatant was separated and stored at −80 °C until the assay. The residual cell pellet was resuspended in 50 μL of PBS for further study. The left lung was washed in saline and placed in 10% buffered formalin for morphological evaluation.
The total number of leukocytes in heparinized blood was determined after staining with methylene blue in Goryaev’s counting chamber at ×100 magnification. Smears of blood and BAL cell pellets were air-dried, fixed according to May–Grunwald for 3 min, and stained according to Romanowsky–Giemsa. After 30 min, the slides were washed, air-dried, and examined with immersion objective (×1000 total magnification). On each slide, a total of at least 100 cells were calculated.
The concentration of total protein in BAL supernatants was determined spectrophotometrically with the pyrogallol red method, and the protein in the blood plasma was determined with the biuret method using commercial kits (Vital, Saint Petersburg, Russia) and bovine serum albumin as the standard. The lung permeability index was calculated as the protein concentration in the BAL to plasma ratio.
Morphological markers of inflammation in lung tissue were assessed in a semi-quantitative way on paraffin sections stained with hematoxylin and eosin. The sections were examined under a light microscope (Zeiss, Germany) by a double-blind method. The score of inflammation was determined as follows: 0—the presence of single inflammatory cells; 1—weak inflammation, inflammatory cells infiltrate no more than 10% of the lung tissue, including interalveolar cell partitions; 2—moderate inflammation, inflammatory cells infiltrate no more than 50% of the structures of the lung, but the interstitial tissue is identified; 3—severe inflammation, inflammatory cells densely infiltrate more than 50% of the lung tissue and airways.

[3] = Cytotoxicity, lactate dehydrogenase (LDH) activity in cell supernatants; type: cell-based, mouse; details: male, C57bl/6j, mouse, LPS-stimulated peritoneal macrophages
Procedure: (§1) Peritoneal macrophages (PM) were isolated from the peritoneal exudate of 30 male C57bl/6j mice. To accumulate PM, 1 mL of 3% peptone solution was injected intraperitoneally. After 3 days, the mice were euthanized by cervical dislocation. Cells of peritoneal exudate were obtained by aseptic washing of the abdominal cavity with 5 mL of sterile Hanks’s solution (+4–6 °C) without calcium and magnesium ions. The total number and viability of cells were assessed in a Goryaev counting chamber (Russia) with a 0.4% trypan blue staining (Sigma-Aldrich, St. Louis, MO, USA). The cell concentration was adjusted to 1.0 × 10^6 cells/mL in DMEM (Gibco) supplemented with 2 mM L-glutamine (Gibco, Waltham, MA, USA), 10% heat-inactivated fetal bovine serum (BioClot, Bavaria, Germany), 100 U/mL penicillin, and […] streptomycin (Gibco) and plated 200 μL/well in 96-well transparent plates (SPL Life Sciences Co., Ltd., Pocheon-si, Korea). After 2 h at 37 °C in a humidified atmosphere with 5% CO2, the wells were washed to remove non-adherent cells. After 24 h of incubation, 20 μL of the supernatants were substituted with 20 μL of solutions of test compounds, followed by E. coli O127:B8 LPS (100 ng/mL final concentration) after 30 min. The experiments were run in 3 independent replicates.
(§2) The activity of lactate dehydrogenase (LDH) in a cell culture medium served as a marker of membrane permeability and cell death. […] Then, 25 μL of a 6.48 mM pyruvate solution was added to the mixture. The optical density was followed at a wavelength of 340 nm for 20 min. The MTT-test was performed 24 h after incubations of cells with tested compounds. Briefly, 20 μL of MTT solution was added to each well, incubated at 37 °C in a humidified atmosphere containing 5% CO2 for 4 h. The culture medium was removed, the cells were lysed, and formazan crystals were dissolved in 150 μL DMSO. The plates were shaken at room temperature for 10 min, and the optical density was measured in a microplate reader Infinite M200 PRO (Tecan, Grödig, Austria) at a wavelength of 565 nm.

[4] = system: peritoneal macrophages of C57bl/6j mice; assay: as above; type: cell-based, mouse
Procedure: as §1, §2

[5] = 24 h after LPS, dexamethasone 5 mg/kg, 9g 30 mg/kg i.p.

Compound: Cc1nc2nnnn2c(NCCc2ccc(O)cc2)c1[N+](=O)[O-] [Compound 9g, N-[2-(4-Hydroxyphenyl)ethyl]-5-methyl-6-nitrotetrazolo-[1,5-a]pyrimidin-7-amine]
- pIC50 [1]: 5.43
- Blood leukocyte subpopulations ([2]; 24 h after LPS): normalized leukocyte subpopulations to the values of intact animals
- CD68+ cells in lung tissue, immunostaining ([2]; 24 h after LPS): decreased the immunoreactivity of the lung tissue
- LPS-induced lung lesions, histologic scoring (hemorrhage and neutrophil infiltration) ([2]; 24 h after LPS, H&E, semi-quantitative): significantly ameliorated
- Blood plasma IL-6 level [2, 5]: normalized the blood plasma IL-6 level
- Permeability of pulmonary vessels (lung permeability index) [2, 5]: prevent the increase in permeability of pulmonary vessels
- Horizontal motor activity, open field test ([2]; 24 h after LPS, dexamethasone 5 mg/kg, 9g 30 mg/kg i.p. 1 h before LPS): restored motor activity of animals comparably to dexamethasone
- Segmented neutrophils count in BAL (in words) ([2]; 24 h after LPS, monocytes in BAL increased): significantly decreased the segmented neutrophils count
- Spleen mass and lymphocyte content (markers of immunodepression) ([2]; LPS-treated mice, dexamethasone 5 mg/kg, 9g 30 mg/kg i.p.): nonsignificant
- LPS-induced hypothermia ([2]; body temperature determined rectally): attenuated LPS-induced hypothermia
- Segmented neutrophils, share of BAL cells ([2]; bronchoalveolar lavage 24 h after LPS, dexamethasone 5 mg/kg, 9g 30 mg/kg i.p.): 37.6%
- Number of center entries and time in the center, open field test ([2]; dexamethasone 5 mg/kg, 9g 30 mg/kg i.p.): restored the number of center entries and time in the center to intact levels
- CC50 at 24 h [3]: > 100 µM
- Cytotoxic properties during the phagocytosis experiment (LDH) ([4]; up to 72 h of incubation): No cytotoxic properties were noted
- Effect on viability of the macrophages ([4]; up to a concentration of 50 μM): did not affect the viability
